Patent US20250376484A1, “PRMT5 INHIBITORS AND USES THEREOF” (Gilead Sciences, Inc., priority 2024, published 2025)

Assays:
[1] = tested on: HCT116 MTAP-deleted cell lines; assay: Cell viability assay (CellTitre-Glo), HCT116 MTAP-deleted; assay type: cell-based; details: for CC50: Homo sapiens, HCT-116, 168 h, HCT116 MTAP-deleted cells, 7 days of treatment, CTG luminescence, read-out: MTAP^del HCT116 CC50; for Selectivity: WT HCT116 CC50 versus MTAP^del HCT116 CC50
Method: (§1) Control compounds were analyzed in parallel each time for quality control.
(§2) In Brief, on Day-1, a serial dilution of stock compounds in DMSO was performed using BioMek liquid handlers and dispensed using Echo acoustic dispenser into 384 well plates. Both tool compounds and sample compounds were spotted in the same plate for a dose response of PRMT5 inhibitors. Compound plates were stored as frozen until the cells were ready for seeding.
(§3) On Day 0, 100 HCT WT or HCT116 MTAP-deleted cells were seeded in compound-containing 384 well plates (50 μl per well) in RPMI 1640 media supplemented with 10% heat inactivated fetal bovine serum, Glutamax and penicillin streptomycin using EL460 liquid dispenser 5 μl cassette (BioTek, part no. 7170011). After equilibrating the plate in room temperature, the cells were incubated for 7 days inside the sealed incubator set at 37° C. with […] and 5% CO2.
(§4) On Day 7, the viability of cells was measured using a CTG assay kit (CellTitre-Glo; Promega cat no. G7573). Shortly, 40 μl per well of luminescent cell viability assay reagent were dispensed using EL460 liquid dispenser 5 μl cassette. CTG luminescence signal was measured using an EnVision plate reader (PerkinElmer) in accordance with manufacturer's instruction. The CC50 values for each compound after 7 days of treatment were calculated using 4 parameter non-linear logistical curve fit.

[2] = Cell viability assay (CellTitre-Glo), HCT116 WT; assay type: cell-based; details: human; HCT116 WT cells, 7 days of treatment, CTG luminescence
Method: as §1, §2, §3, §4

[3] = MDR1/BCRP assay: permeability in cPgp-KO-MDCK-WT cells; assay type: in vitro ADME; details: dog, test compounds at 1 μM, 2-hour time point, pH 7.4
Method: (§5) cPgp-KO-MDCK-WT, cPgp-KO-MDR1-KI, and cPgp-KO—BCRP—KI cells (all from Sigma) were cultured in Dulbecco's Modification of Eagle's Medium (DMEM) with 4.5 g/L glucose, sodium pyruvate, and GlutaMAX (Gibco) supplemented with 1% Pen/Strep and 10% fetal bovine serum. The cells were maintained in an incubator at 37° C., 90% humidity, and 5% CO2 until reaching confluence over 5 days in 96-well transwell plates. Experiments were conducted using an HBSS donor buffer (Invitrogen) containing 10 mM HEPES and 15 mM glucose, adjusted to pH 7.4. The receiver well contained HBSS buffer supplemented with 1% BSA, 10 mM HEPES, and 15 mM glucose, and the pH was adjusted to 7.4. TEER values were measured to assess membrane integrity after an initial equilibration with BSA-free transport buffer for 15 minutes. The experiment was started by adding dosing solutions containing test compounds at 1 μM. Cells were dosed on the apical (A) side or basolateral (B) side at 100 μl and 200 μl, respectively, to determine forward (A to B) and reverse (B to A) permeability. At the 2-hour time point, 50 μl samples were collected from the receiver compartment. Each compound was tested in 2 separate replicate wells for each condition. All samples were immediately collected into plates, and 50 μL of acetonitrile was added. Subsequently, 350 μl of 30:70 methanol: acetonitrile containing internal standard was added to precipitate proteins and stabilize the test compounds. To test for non-specific binding and compound instability, the total amount of the drug was quantified at the end of the experiment and compared to the material present in the original dosing solution as a percentage of the recovery. All samples were analyzed by LC-MS/MS using electrospray ionization.
(§6) The apparent permeability, Papp, and % recovery were calculated as follows: […]

BCRP = target: T1, BCRP (Homo sapiens, UniProt Q9UNQ0); assay: MDR1/BCRP assay: efflux ratio in cPgp-KO-BCRP-KI cells; assay type: in vitro ADME; details: dog, efflux ratio Papp (B-to-A)/Papp (A-to-B), 2-hour time point, read-out: cPgp-KO-BCRP-KI (ER)
T1 construct: host or cells: MDCK cells with canine Pgp knocked out and BCRP knocked in (cPgp-KO-BCRP-KI)
T1 sequence (Q9UNQ0 1-655): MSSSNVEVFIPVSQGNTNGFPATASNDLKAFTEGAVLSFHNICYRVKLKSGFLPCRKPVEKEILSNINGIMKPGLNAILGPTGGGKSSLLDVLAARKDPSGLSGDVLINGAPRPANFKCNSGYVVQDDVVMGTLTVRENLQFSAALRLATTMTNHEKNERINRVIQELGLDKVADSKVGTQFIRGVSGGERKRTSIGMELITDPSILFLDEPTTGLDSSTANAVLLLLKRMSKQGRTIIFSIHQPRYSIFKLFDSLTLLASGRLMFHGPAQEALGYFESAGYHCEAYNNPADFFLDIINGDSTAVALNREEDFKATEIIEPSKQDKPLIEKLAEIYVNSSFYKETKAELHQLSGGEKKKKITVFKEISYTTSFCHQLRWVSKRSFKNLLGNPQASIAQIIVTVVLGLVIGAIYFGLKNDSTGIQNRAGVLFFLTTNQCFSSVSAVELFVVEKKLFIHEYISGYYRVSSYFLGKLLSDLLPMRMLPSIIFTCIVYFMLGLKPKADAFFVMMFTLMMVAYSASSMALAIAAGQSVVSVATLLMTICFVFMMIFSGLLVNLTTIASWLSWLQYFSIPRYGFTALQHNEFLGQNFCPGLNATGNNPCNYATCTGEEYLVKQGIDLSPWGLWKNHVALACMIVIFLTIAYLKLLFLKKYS
Method: as §5, §6

MDR1 = target: T2, MDR1 (Homo sapiens, UniProt P08183); assay: MDR1/BCRP assay: efflux ratio in cPgp-KO-MDR1-KI cells; assay type: in vitro ADME; details: dog, MDCK-MDR1, efflux ratio Papp (B-to-A)/Papp (A-to-B), 2-hour time point, read-out: cPgp-KO-MDR1-KI (ER)
T2 construct: host or cells: MDCK cells with canine Pgp knocked out and MDR1 knocked in (cPgp-KO-MDR1-KI)
Method: as §5, §6

T2 sequence (P08183 whole entry): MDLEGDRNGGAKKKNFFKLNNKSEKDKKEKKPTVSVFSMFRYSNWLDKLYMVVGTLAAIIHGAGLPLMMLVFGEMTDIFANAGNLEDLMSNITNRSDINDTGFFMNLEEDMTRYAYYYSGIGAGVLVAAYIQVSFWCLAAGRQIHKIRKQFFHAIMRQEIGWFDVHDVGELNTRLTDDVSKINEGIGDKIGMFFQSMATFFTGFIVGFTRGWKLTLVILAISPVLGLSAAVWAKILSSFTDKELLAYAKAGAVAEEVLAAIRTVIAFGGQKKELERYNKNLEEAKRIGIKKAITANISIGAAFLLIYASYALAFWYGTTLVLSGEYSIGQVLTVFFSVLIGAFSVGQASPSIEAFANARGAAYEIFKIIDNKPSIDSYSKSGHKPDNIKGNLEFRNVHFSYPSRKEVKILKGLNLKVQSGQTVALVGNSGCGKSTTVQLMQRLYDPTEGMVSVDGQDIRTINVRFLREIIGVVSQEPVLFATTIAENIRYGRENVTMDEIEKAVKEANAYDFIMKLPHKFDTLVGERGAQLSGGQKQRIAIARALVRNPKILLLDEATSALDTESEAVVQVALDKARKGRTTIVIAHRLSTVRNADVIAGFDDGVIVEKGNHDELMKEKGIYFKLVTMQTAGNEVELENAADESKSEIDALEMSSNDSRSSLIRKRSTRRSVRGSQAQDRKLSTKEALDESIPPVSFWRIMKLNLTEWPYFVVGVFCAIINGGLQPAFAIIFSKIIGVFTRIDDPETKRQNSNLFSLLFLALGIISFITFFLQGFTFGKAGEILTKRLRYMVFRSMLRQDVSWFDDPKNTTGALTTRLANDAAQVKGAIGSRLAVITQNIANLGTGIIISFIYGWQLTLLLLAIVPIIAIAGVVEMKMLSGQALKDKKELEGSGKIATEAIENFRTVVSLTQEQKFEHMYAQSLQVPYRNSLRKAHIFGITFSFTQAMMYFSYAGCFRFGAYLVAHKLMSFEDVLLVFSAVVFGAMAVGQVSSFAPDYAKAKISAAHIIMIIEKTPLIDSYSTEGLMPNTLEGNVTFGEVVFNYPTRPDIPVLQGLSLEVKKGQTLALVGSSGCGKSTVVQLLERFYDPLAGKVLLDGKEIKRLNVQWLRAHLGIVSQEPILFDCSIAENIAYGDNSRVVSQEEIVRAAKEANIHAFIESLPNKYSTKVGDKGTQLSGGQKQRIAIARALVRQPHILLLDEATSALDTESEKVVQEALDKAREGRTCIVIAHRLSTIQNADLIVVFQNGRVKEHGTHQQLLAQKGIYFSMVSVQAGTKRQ

| Papp A→B at 2 h, 1 µM [3] [×10⁻⁶ cm/s] | efflux ratio at 2 h, 1 μM (BCRP) | efflux ratio at 2 h, 1 μM (MDR1) | Compound | CC50 [1] [nM] | Selectivity [1] | CC50 at 7 days [2] [nM] |
| --- | --- | --- | --- | --- | --- | --- |
| 19.7 | 9 | 2.5 | C[C@@H]1C[C@@H]2Oc3nc(C(F)(F)F)ccc3[C@@H]2N(C(=O)C(=O)Nc2cnc(N)c3c2cnn3C)C1 [Example Ca-8, N-(7-amino-1-methyl-1H-pyrazolo[3,4-c]pyridin-4-yl)-2-((3R,4aS,9bS)-3-methyl-7-(trifluoromethyl)-3,4,4a,9b-tetrahydrofuro[2,3-b:4,5-b′]dipyridin-1(2H)-yl)-2-oxoacetamide] | 13 | 93 | 1200 |
| 17.7 | 1.1 | 1 | C[C@@H]1CN(C(=O)C(=O)Nc2cnc(N)c3c2cnn3C)[C@H]2c3ccc(C(F)(F)F)cc3C[C@H]2O1 [Example Ca-10, N-(7-amino-1-methyl-1H-pyrazolo[3,4-c]pyridin-4-yl)-2-((2R,4aS,9aR)-2-methyl-7-(trifluoromethyl)-2,3,9,9a-tetrahydroindeno[2,1-b][1,4]oxazin-4(4aH)-yl)-2-oxoacetamide] | 28 | 96 | 2720 |
| 10.7 | 1.3 | 1.4 | Cn1ncc2c(NC(=O)C(=O)N3CC[C@H]4C[C@@H]3c3c(F)cc(C(F)(F)F)cc3O4)cnc(N)c21 [Example Ca-11, N-(7-amino-1-methyl-1H-pyrazolo[3,4-c]pyridin-4-yl)-2-((2S,6R)-7-fluoro-9-(trifluoromethyl)-3,4-dihydro-2H-2,6-methanobenzo[b][1,5]oxazocin-5(6H)-yl)-2-oxoacetamide] | 18 | 115 | 2070 |
